Test: xn = mol fraction of the nth substance listed

Cn1cc[n+](CCO)c1.O=C([O-])C(F)(F)C(F)(F)C(F)(F)C(F)(F)F + O
101 kPa
Settings	electrical conductivity, 298.15 K [S/m]	viscosity, 298.15 K [mPa·s]	viscosity, 308.15 K [mPa·s]	viscosity, 318.15 K [mPa·s]
x1 = 0.01954	1.86	2.373	1.881	1.521
x1 = 0.0234	1.85	2.72	2.129	1.713
x1 = 0.02752	1.82	3.1	2.403	1.914
x1 = 0.02972	1.79	3.29	2.55	2.027
x1 = 0.03222	1.76	3.67	2.8	2.204
x1 = 0.03772	1.67	4.35	3.3	2.59
x1 = 0.04078	1.61	4.62	3.5	2.73
x1 = 0.04409	1.55	4.98	3.72	2.87
x1 = 0.05152	1.42	6.18	4.57	3.51
x1 = 0.05575	1.35	6.8	5	3.8
x1 = 0.0602	1.27	7.62	5.55	4.2
x1 = 0.06471	1.2	8.23	5.97	4.49
x1 = 0.07633	1.04	9.67	6.91	5.16
x1 = 0.082	0.97	10.72	7.6	5.62
x1 = 0.08895	0.89	12.37	8.65	6.3
x1 = 0.09727	0.81	13.43	9.39	6.84
x1 = 0.1069	0.73	15.01	10.41	7.54
x1 = 0.1275	0.6	18.85	12.87	9.24
x1 = 0.1399	0.54	22.47	15.15	10.73
x1 = 0.1574	0.465	26.8	17.82	12.47
x1 = 0.1727	0.415	29.6	19.6	13.63
x1 = 0.2189	0.309	38.1	24.8	16.97
x1 = 0.2539	0.257	43.9	28.2	19.16
x1 = 0.2952	0.213	52.2	33.1	22.22
x1 = 0.3469	0.173	64.4	40.2	26.6
x1 = 0.4176	0.134	86.6	52.8	34.3
x1 = 0.5205	0.097	131.5	77.3	48.9
x1 = 0.7217	0.053	232	129.6	78.3
x1 = 1	0.0315	713	351	190.8

CCCC[n+]1ccn(C)c1.N#C[C-](C#N)C#N + CCCC[n+]1ccn(C)c1.O=S(=O)([N-]S(=O)(=O)C(F)(F)F)C(F)(F)F
viscosity [mPa·s], 100 kPa
Settings	x2 = 0	x2 = 0.252	x2 = 0.501	x2 = 0.751
283.15 K	58.2	65.9	77.3	88.9
288.15 K	44.5	50.6	59.4	68.5
293.15 K	34.9	39.8	46.8	53.9
298.15 K	28	31.9	37.6	43.1
303.15 K	22.9	26.1	30.7	35.2
308.15 K	18.98	21.6	25.4	29.1
313.15 K	15.99	18.22	21.4	24.4
318.15 K	13.66	15.53	18.22	20.7
323.15 K	11.8	13.39	15.72	17.75
328.15 K	10.29	11.66	13.61	15.38
333.15 K	9.06	10.25	11.9	13.44
338.15 K	8.04	9.08	10.54	11.84
343.15 K	7.19	8.1	9.38	10.5
348.15 K	6.47	7.27	8.42	9.39
353.15 K	5.86	6.57	7.55	8.44
358.15 K	5.34	5.97	6.86	7.62
363.15 K	4.88	5.46	6.29	6.93

NCCO + CN1CCCC1=O + CCCC[n+]1ccn(C)c1.O=S(=O)([N-]S(=O)(=O)C(F)(F)F)C(F)(F)F
viscosity [mPa·s], 101 kPa
Settings	293.15 K	298.15 K	303.15 K	308.15 K	313.15 K	318.15 K	323.15 K	328.15 K	333.15 K
x1 = 0.1608, x2 = 0.8154	3.357	3.042	2.776	2.553	2.364	2.204	2.068	1.95	1.848
x1 = 0.2089, x2 = 0.7256	4.749	4.206	3.761	3.388	3.089	2.818	2.599	2.41	2.252
x1 = 0.2436, x2 = 0.6371	6.416	5.617	4.959	4.413	3.958	3.575	3.254	2.982	2.752

CC(C)C[C@H](N)C(=O)[O-].CCCC[P+](CCCC)(CCCC)CCCN + O
333.15 K, 101 kPa, x2 = 0
Settings	electrical conductivity [S/m]	viscosity [mPa·s]
–	0.0413	130.5

CCCCCC[n+]1ccn(C)c1.[I-] + [I-].[Li+]
101 kPa, frequency 0.03 MHz, x1 = 0.59
Settings	electrical conductivity [S/m]
288.1 K	0.000226
293 K	0.000466
298.1 K	0.000891
308.1 K	0.0032
313 K	0.00537
318.1 K	0.00863

viscosity [mPa·s], 101 kPa
Settings	298.1 K	303 K	308.1 K	328.1 K	368.1 K
x1 = 0.59	15200	–	4263	–	–
x1 = 1	–	1175	–	213	38.5

— the CheMixHub ionic liquid set
